From patent publication US11672795B2, “Compositions and methods for treating pulmonary vascular disease” (UNIVERSITY OF PITTSBURGH-OF THE COMMONWEALTH SYSTEM OF …, priority 2016, dated 2023)
“Also recorded” adds a separate entry of the source.

Experiments:
Assay type in all cases: in vivo, rat
[1] = system: monocrotaline-exposed rats; assay: Histology and immunofluorescence of lung sections of monocrotaline-exposed rats; conditions: for CD31/PCNA and α-SMA/PCNA double-positive cells (vascular endothelial and smooth muscle proliferation) / GLS1 vascular intensity / YAP1+ cells / vessel thickness and muscularization (vascular remodeling): daily BAPN or daily i.p. verteporfin 25 mg/kg; for pulmonary arteriolar muscularization / pulmonary arteriolar remodeling / Ki67/PCNA positive cells in CD31/vWF+ endothelial compartment / Ki67/PCNA positive cells in α-SMA+ medial (smooth muscle) compartment: daily i.p. 10 mg/kg; for pulmonary arteriolar muscularization / pulmonary arteriolar remodeling: C968 from day 2, CB839 from day 7
Description: Lung sections (5 μm) were deparaffinized and high temperature antigen retrieval was performed, followed by blocking in TBS/BSA 5%, 10% donkey serum and exposure to primary antibody and biotinylated secondary antibody (Vectastain ABC kit, Vector Labs) for immunohistochemistry or Alexa 488, 568 and 647-conjugated secondary antibodies (Thermo Fisher Scientific) for immunofluorescence. A primary antibody against YAP1 (#4912; 1/200 or sc101199; 1/50) were obtained from Cell Signaling and Santa Cruz Biotechnology respectively. Primary antibodies against, GLS1 (ab156876; 1/100), PC (ab115579; 1/100), LDHA (ab47010; 1/200) and α-SMA (ab32575; 1/1000) were purchased from Abcam. A primary antibody against CD31 (sc-1506; 1/100), was purchased from Santa Cruz Biotechnology. A primary antibody against PCNA (13-3900, 1/100) was purchased from Thermo Fisher Scientific. In most cases, color development was achieved by adding streptavidin-biotinylated alkaline phosphatase complex (Vector Labs) followed by Vector Red alkaline phosphatase substrate solution (Vector Labs). Levamisole was added to block endogenous alkaline phosphatase activity (Vector Labs). Pictures were obtained using an Olympus Bx51 microscope or ZEISS LSM Exciter confocal microscope. Small pulmonary vessels (<100 µm diameter) present in a given tissue section (>10 vessels/section) that were not associated with bronchial airways were selected for analysis (N>5 animals/group). Intensity of staining was quantified using ImageJ software (NIH). Degree of pulmonary arteriolar muscularization was assessed in paraffin-embedded lung sections stained for α-SMA by calculation of the proportion of fully and partially muscularized peripheral (<100 μm diameter) pulmonary arterioles to total peripheral pulmonary arterioles, as previously described (12). All measurements were performed blinded to condition.
To induce PH, male Sprague-Dawley rats (10-14 week old) were injected intraperitoneally with 60 mg/kg monocrotaline (Sigma-Aldrich). After two days, rats underwent intraperitoneal injection daily with 25 mg/kg of verteporfin (Active Biochemicals Company, Ltd) solubilized in 5% dimethyl sulfoxide (DMSO, Sigma-Aldrich). Two days after the last injection on day 21 post-monocrotaline injection, right heart catheterization was performed followed by harvest of lung tissue and CD31+ cells for RNA or protein extraction, paraffin embedding, or cryopreservation with OCT (Sigma-Aldrich), as we described (2).
To induce PH, male Sprague-Dawley rats (10-14 week old) were injected intraperitoneally with 60 mg/kg monocrotaline (Sigma-Aldrich). After two days, serial intraperitoneal injections were given daily of C968 (10 mg/kg, Sigma-Aldrich), and after seven days post-monocrotaline injection, serial intraperitoneal injections were given daily of CB839 (10 mg/kg, Selleck Chemicals). Two days after the last injection on day 21 post-monocrotaline injection, right heart catheterization was performed followed by harvest of lung tissue and CD31+ cells for RNA or protein extraction, paraffin embedding, or cryopreservation with OCT (Sigma-Aldrich), as we described (2).

Lox = Lox activity in lungs of monocrotaline-exposed rats; conditions: daily BAPN or daily i.p. verteporfin 25 mg/kg, vs vehicle
Description: Monocrotaline-treated rats: As we previously described (7, 8), male Sprague-Dawley rats (10-14 week old) were injected with 60 mg/kg monocrotaline at time 0; at 0-4 weeks post-exposure, right heart catheterization was performed followed by harvest of lung tissue for RNA extraction or paraffin embedding, as described below (section: Tissue harvest).
To establish definitively whether periarteriolar ECM remodeling and YAP/TAZ modulate vascular cell metabolism in vivo, it was determined whether alteration of YAP/TAZ-dependent mechanotransduction directly controls glutaminolysis and PH development in the monocrotaline rat model. First, using a known pharmacologic inhibitor (β-aminoproprionitrile, BAPN) of Lox, the enzyme responsible for collagen crosslinking and consequent matrix stiffening, it was determined whether inhibition of ECM stiffening could prevent the metabolic changes and downstream PH manifestations observed in monocrotaline-exposed rats (FIG. 4A). […] Such metabolic effects further decreased vascular endothelial and smooth muscle proliferation, as reflected by in situ arteriolar staining (FIG. 4G), and ameliorated hemodynamic and histologic manifestations of PH, as measured by vascular remodeling and muscularization (FIG. 4G), and right ventricular systolic pressure (RVSP) (FIG. 4H).

GLS1 = GLS1 expression by RT-qPCR in monocrotaline-exposed rats; conditions: for GLS expression: CD31+ cells of monocrotaline-exposed rats, daily BAPN or daily i.p. verteporfin 25 mg/kg; for GLS1 expression in lungs: monocrotaline-exposed rats, daily BAPN or daily i.p. verteporfin, vs vehicle, RT-qPCR
Description: (§1) Messenger RNAs were reverse transcribed using the Multiscript RT kit (Life Technologies) to generate cDNA. cDNA was amplified via fluorescently labeled Taqman primer sets using an Applied Biosystems 7900HT Fast Real Time PCR device. To specifically determine the relative expression of the two GLS1 isoforms KGA and GAC, TaqMan gene expression assays Hs01014019_m1 and Hs01022166_m1 were used respectively. Fold-change of RNA species was calculated using the formula (2^−ΔΔCt), normalized to RPLP0 expression.
(§2) As previously reported (8, 11), lobes of lung tissue from a rat were diced with scissors, to which 200 μL of collagenase D solution (Sigma) was added for a final concentration of 2 mg/ml collagenase D in 4.8 mL HEPES buffer (pH=7.4). After incubation for 30 min at 37° C. with automated rotation, 20 μL of DNase I (Sigma, final concentration of 80 U/mL DNase I) was added and incubated on ice for 30 min. The solution was filtered twice by a 70 μm cell strainer (BD Biosciences) to yield a single cell suspension. After two rounds of PBS wash, cell pelleting, and resuspension, the ACK lysing buffer (Gibco) was used to remove erythrocytes. Remained cells were incubated 30 min at 4° C. with a mouse anti-rat-CD31 antibody (BD Pharmigen 555025). Cells were PBS washed twice and incubated 15 min with anti-mouse IgG1 MicroBeads (Miltenyi Biotec) according to the manufacturer protocol. Single CD31-positive cells were then collected using an autoMACS Pro Separator, per the manufacturer's instructions (Miltenyi Biotec). The purity (>95%) of CD31 positive cells was confirmed by flow cytometric analysis by a FACScan flow cytometer (BD Biosciences) after cells labeling with the FITC-conjugated anti-CD31 (ab33858, Abcam).

YAP/TAZ target genes = assay: RT-qPCR of YAP/TAZ target genes in CD31+ cells of monocrotaline-exposed rats; conditions: daily BAPN or daily i.p. verteporfin 25 mg/kg
Description: as §1, §2
To induce PH, male Sprague-Dawley rats (10-14 week old) were injected intraperitoneally with 60 mg/kg monocrotaline (Sigma-Aldrich). After two days, rats underwent intraperitoneal injection daily with 25 mg/kg of verteporfin (Active Biochemicals Company, Ltd) solubilized in 5% dimethyl sulfoxide (DMSO, Sigma-Aldrich). […]

[2] = C968 from day 2, CB839 from day 7, 10 mg/kg
[3] = C968 from day 2, CB839 from day 7, listed as CB-839, 10 mg/kg

N#CCCN [BAPN, β-aminoproprionitrile]
CD31/PCNA and α-SMA/PCNA double-positive cells (vascular endothelial and smooth muscle proliferation) [1]: decreased
GLS1 vascular intensity [1]: decreased
YAP1+ cells [1]: decreased
vessel thickness and muscularization (vascular remodeling) [1]: decreased; also recorded: ameliorated
LOX activity in lungs (Lox): decreased
GLS expression (GLS1): decrease
GLS1 expression in lungs (GLS1): decreased
CTGF and CYR61, YAP/TAZ target genes (YAP1-dependent gene expression) (YAP/TAZ target genes): decrease

C=Cc1c(C)c2cc3nc(cc4[nH]c(cc5nc(cc1[nH]2)C(C)=C5CCC(=O)O)c(CCC(=O)OC)c4C)[C@@]1(C)C3=CC=C(C(=O)OC)[C@H]1C(=O)OC [Verteporfin, 3-[(23S,24R)-14-ethenyl-5-(3-methoxy-3-oxopropyl)-22,23-bis(methoxycarbonyl)-4,10,15,24-tetramethyl-25,26,27,28-tetraazahexacyclo[16.6.1.1^3,6.1^8,11.1^13,16.0^19,24]octacosa-1,3,5,7,9,11(27),12,14,16,18(25),19,21-dodecaen-9-yl]propanoic acid]
CD31/PCNA and α-SMA/PCNA double-positive cells (vascular endothelial and smooth muscle proliferation) [1]: decreased
GLS1 vascular intensity [1]: decreased
YAP1+ cells [1]: decreased
vessel thickness and muscularization (vascular remodeling) [1]: decreased
CD31/PCNA and α-SMA/PCNA double-positive cells (vascular endothelial and smooth muscle proliferation) ([1]; listed as verteporfin): improved
vessel thickness and muscularization (vascular remodeling) ([1]; listed as verteporfin): reductions
LOX activity in lungs (Lox): decreased
GLS expression (GLS1): decrease
GLS expression (GLS1; listed as verteporfin): improved
GLS1 expression in lungs (GLS1): decreased
CTGF and CYR61, YAP/TAZ target genes (YAP1-dependent gene expression) (YAP/TAZ target genes): decrease
CTGF and CYR61, YAP/TAZ target genes (YAP1-dependent gene expression) (YAP/TAZ target genes; listed as verteporfin): decreased

CN(C)c1ccc(C2Nc3ccc4ccccc4c3C3=C2C(=O)CC(C)(C)C3)cc1Br (stereo not drawn) [C968, 5-(3-Bromo-4-(dimethylamino)phenyl)-2,2-dimethyl-2,3,5,6-tetrahydrobenzo[a]phenanthridin-4(1H)-one]
pulmonary arteriolar muscularization [1]: significantly decreased
pulmonary arteriolar remodeling [1]: significantly decreased
Ki67/PCNA positive cells in CD31/vWF+ endothelial compartment [1, 2]: reduced; also recorded: decreased
Ki67/PCNA positive cells in α-SMA+ medial (smooth muscle) compartment [1, 2]: reduced; also recorded: decreased

O=C(Cc1cccc(OC(F)(F)F)c1)Nc1ccc(CCCCc2nnc(NC(=O)Cc3ccccn3)s2)nn1 [CB839]
pulmonary arteriolar muscularization [1]: significantly decreased
pulmonary arteriolar remodeling [1]: significantly decreased
Ki67/PCNA positive cells in CD31/vWF+ endothelial compartment [1, 2]: reduced
Ki67/PCNA positive cells in α-SMA+ medial (smooth muscle) compartment [1, 2]: reduced
Ki67/PCNA positive cells in CD31/vWF+ endothelial compartment [1, 3]: decreased
Ki67/PCNA positive cells in α-SMA+ medial (smooth muscle) compartment [1, 3]: decreased
